{
  "source": "paper PMC2441954",
  "about": "“Phase I pharmacokinetic and pharmacodynamic study of the prenyl transferase inhibitor AZD3409 in patients with advanced cancer” (British Journal of Cancer, 2008)",
  "key": {"[1]": {"assay": "Plasma pharmacokinetics (LC-MS/MS, noncompartmental) in phase I patients", "type": "in vivo, human", "conditions": "for Cmax / AUC: human, plasma, oral; for AUC: read-out: AUC0−τ", "protocol": "Pharmacokinetic studies were performed in all patients. Ethylenediaminetetraacetic acid blood samples were collected during the first cycle: on day 1 before the first drug intake and 0.5, 1, 2, 4, 6, 8, 12 and 24 h after administration; on days 3, 8 and 15 before the morning drug intake and 2 h after administration; and on day 22 before the morning drug intake and 0.5, 1, 2, 4, 6, 8, 12 and 24 h after administration. Samples were immediately put on ice and centrifuged at 4°C for 10 min at 1500 g. The resulting plasma was stored at −70°C until analysis. Plasma samples of the last three patients were not measured as the study was stopped before analysis.\nThe total plasma concentrations of AZD3409 ester and AZD3409 acid were determined by LC–MS/MS. The plasma samples were treated with dithiothreitol to reduce any disulphide bonds. The sample pretreatment was based on protein precipitation with acidic acetonitrile. Isotopically labelled analogues were used as internal standards. The method has been validated regarding selectivity, accuracy, precision and stability in human plasma. The lower limit of quantification was 3 ng ml^−1 for both AZD3409 ester and AZD3409 acid, with a 50 μl sample volume.\nThe following PK parameters were determined, either by direct observation or by noncompartmental analysis (WinNonlin, version 5.0.1; Pharsight, Mountain View, CA, USA): the minimal plasma concentration (Cmin), the maximal plasma concentration (Cmax), the area under the curve within one dosing interval (AUC0−τ) and total plasma clearance (Cl/F). Correlations between dose and Cmax levels and between dose and AUC0−τ were analysed on day 1 using the nonparametric Spearman's ρ (Rs) correlation test. Accumulation was tested with an exact Wilcoxon's rank paired signed test. Linear measures mixed effects models were constructed with SAS (SAS Institute Inc., Cary, NC, USA) to determine the effect of the dose on the trough plasma concentrations of both metabolites. The daily dose, time (days), gender and age were considered to be a fixed effect, and the patient variable was considered to be a random effect. Owing to the distribution of the trough plasma concentration log transformation was applied."}, "FTase": {"target": "T1, FTase (Homo sapiens, UniProt P49356)", "T1 construct": "endogenous in cells; host or cells: peripheral blood mononuclear cells (PBMCs) of treated patients, lysed", "assay": "FTase activity in PBMC lysates of patients (lamin B or K-Ras substrate), PK/PD Emax model", "type": "in vivo", "protocol": "Prior to and 2 h after intake on days 1, 2 (only predose), 8 and 22, whole-blood samples of 22.5 ml were collected in heparinised tubes for FTase activity determination in peripheral blood mononuclear cells (PBMCs). Within 30 min, the PBMC fraction was isolated using Accuspin tubes (Sigma). The cell pellet was resuspended in 100 μl lysis buffer (PBS containing 1% (v/v) Triton X-100, 0.5% (w/v) sodium deoxycholate, 0.1% (w/v) sodium dodecylsulphate and 1% (v/v) aprotinin) and stored at −70°C.\nFTase activity was measured by adding 5 μl of PBMC lysate, 5 μl of lysis buffer and 10 μl of water to each well. The lysates were preincubated for 10 min prior to the addition of 20 μl of substrate solution (either lamin B or K-Ras). The reaction was initiated by the addition of 10 μl of radiolabelled farnesylpyrophosphate (fpp). The wells were incubated for 40 min at 37°C. The reaction was stopped by the addition of 100 μl of 1.5 M HCl in ethanol. The wells were stored at 4°C for 1 h and then processed using the Tomtec Harvester 96. The filter plates were dried at 37°C for 15 min, 0.35 μl MicroScint was added to each filter well and the radioactivity was counted. Each lysate was analysed in triplicate. Blanks consisted of the same reaction mixture without the substrate.\nLinear mixed effects models were constructed to determine the effect of time on the enzyme activity levels. In these models, the daily dose, number of applications, time (days), measurement pre- or postdrug intake, gender and age were considered to be a fixed effect, and the patient variable was considered to be a random effect. Owing to the distribution of the response variables, square root variables were applied. Statistical analysis was performed with SAS. To determine the correlation of the dose level and the enzyme inhibition, a baseline was added to the described models.\nPharmacokinetic-pharmacodynamic correlations between the active acid metabolite and decrease in FTase activity were fitted with WinNonlin software. Only patients with a basal FTase activity that was higher than 10 pg fpp per mg protein per min were included in the model. This cutoff value was arbitrary and was chosen based on the available data (lamin B; mean: 28.0, SD: 14.2, median: 27.8, 25% percentile: 19.1 and K-Ras; mean: 29.3, SD: 17.8, median: 25.6, 25% percentile: 16.7). The decision to set a minimum baseline FTase activity implicates that the model can only be used for patients with a minimum FTase activity of 10 pg fpp per mg protein per min."}, "[2]": {"conditions": "500 mg once daily, day 1, dose 500 (once daily), N=3, mean (SD)"}, "[3]": {"conditions": "500 mg once daily, day 22, dose 500 (once daily), N=2, absolute values"}, "[4]": {"conditions": "750 mg b.i.d., day 1, dose 750 b.i.d., N=8, mean (SD)"}, "[5]": {"conditions": "750 mg b.i.d., day 22, dose 750 b.i.d., N=3, mean (SD)"}, "[6]": {"conditions": "1000 mg once daily, day 1, dose 1000 (once daily), N=3, mean (SD)"}, "[7]": {"conditions": "1000 mg once daily, day 22, dose 1000 (once daily), N=3, mean (SD)"}, "[8]": {"conditions": "1250 mg b.i.d., day 1, dose 1250 b.i.d., N=6, mean (SD)"}, "[9]": {"conditions": "1250 mg b.i.d., day 22, dose 1250 b.i.d., N=4, mean (SD)"}, "[10]": {"conditions": "1500 mg b.i.d., day 1, dose 1500 b.i.d., N=2, absolute values"}, "[11]": {"conditions": "1750 mg b.i.d., day 1, dose 1750 b.i.d., N=4, mean (SD)"}, "[12]": {"conditions": "1750 mg b.i.d., day 22, dose 1750 b.i.d., N=1"}},
  "note": "Like-named read-outs stand apart in the source and are kept apart here.",
  "data": [
    {"smiles": "CSCC[C@H](NC(=O)c1cc(NC[C@@H]2C[C@H](S)CN2)ccc1CCc1ccc(F)cc1)C(=O)O", "note": "[AZD3409 acid]", "values": [
      {"measurement": "mean time at which Cmax was reached", "setting": "[1]; cycle 1, plasma", "value": 2.7, "unit": "h"},
      {"measurement": "Spearman correlation (Rs) between dose and AUC", "setting": "[1]; day 1", "value": 0.52},
      {"measurement": "Spearman correlation (Rs) between dose and Cmax", "setting": "[1]; day 1", "value": 0.43},
      {"measurement": "Cl/F", "setting": "[1]; day 22, dose 500 (once daily), N=2, absolute values", "value": "[465–488] l h^−1"},
      {"measurement": "Cl/F", "setting": "[1]; day 22, dose 750 b.i.d., N=3, mean (SD)", "value": "473 (155) l h^−1"},
      {"measurement": "Cl/F", "setting": "[1]; day 22, dose 1000 (once daily), N=3, mean (SD)", "value": "710 (148) l h^−1"},
      {"measurement": "Cl/F", "setting": "[1]; day 22, dose 1250 b.i.d., N=4, mean (SD)", "value": "785 (311) l h^−1"},
      {"measurement": "Cl/F", "setting": "[1]; day 22, dose 1750 b.i.d., N=1", "value": 1706, "unit": "L/h"},
      {"measurement": "Ratio AUC0−τ day 22/day 1", "setting": "[1]; dose 500 (once daily), N=2, absolute values", "value": "[2.07–10.1]"},
      {"measurement": "Ratio AUC0−τ day 22/day 1", "setting": "[1]; dose 750 b.i.d., N=3, mean (SD)", "value": "9.29 (11.2)"},
      {"measurement": "Ratio AUC0−τ day 22/day 1", "setting": "[1]; dose 1000 (once daily), N=3, mean (SD)", "value": "2.10 (1.19)"},
      {"measurement": "Ratio AUC0−τ day 22/day 1", "setting": "[1]; dose 1250 b.i.d., N=4, mean (SD)", "value": "1.95 (1.05)"},
      {"measurement": "Ratio AUC0−τ day 22/day 1", "setting": "[1]; dose 1750 b.i.d., N=1", "value": 1.23},
      {"measurement": "Cmax", "setting": "[1]; [2]", "value": 33.6, "unit": "ng/mL"},
      {"measurement": "AUC", "setting": "[1]; [2]", "value": 160, "unit": "ng·h/mL"},
      {"measurement": "Cmax", "setting": "[1]; [3]", "value": "95.9 to 111", "unit": "ng/mL"},
      {"measurement": "AUC", "setting": "[1]; [3]", "value": "712 to 775", "unit": "ng·h/mL"},
      {"measurement": "Cmax", "setting": "[1]; [4]", "value": 93.8, "unit": "ng/mL"},
      {"measurement": "AUC", "setting": "[1]; [4]", "value": 468, "unit": "ng·h/mL"},
      {"measurement": "Cmax", "setting": "[1]; [5]", "value": 138, "unit": "ng/mL"},
      {"measurement": "AUC", "setting": "[1]; [5]", "value": 934, "unit": "ng·h/mL"},
      {"measurement": "Cmax", "setting": "[1]; [6]", "value": 78.6, "unit": "ng/mL"},
      {"measurement": "AUC", "setting": "[1]; [6]", "value": 512, "unit": "ng·h/mL"},
      {"measurement": "Cmax", "setting": "[1]; [7]", "value": 106, "unit": "ng/mL"},
      {"measurement": "AUC", "setting": "[1]; [7]", "value": 904, "unit": "ng·h/mL"},
      {"measurement": "Cmax", "setting": "[1]; [8]", "value": 119, "unit": "ng/mL"},
      {"measurement": "AUC", "setting": "[1]; [8]", "value": 677, "unit": "ng·h/mL"},
      {"measurement": "Cmax", "setting": "[1]; [9]", "value": 168, "unit": "ng/mL"},
      {"measurement": "AUC", "setting": "[1]; [9]", "value": 1230, "unit": "ng·h/mL"},
      {"measurement": "Cmax", "setting": "[1]; [10]", "value": "83.5 to 148", "unit": "ng/mL"},
      {"measurement": "AUC", "setting": "[1]; [10]", "value": "458 to 749", "unit": "ng·h/mL"},
      {"measurement": "Cmax", "setting": "[1]; [11]", "value": 140, "unit": "ng/mL"},
      {"measurement": "AUC", "setting": "[1]; [11]", "value": 751, "unit": "ng·h/mL"},
      {"measurement": "Cmax", "setting": "[1]; [12]", "value": 165, "unit": "ng/mL"},
      {"measurement": "AUC", "setting": "[1]; [12]", "value": 466, "unit": "ng·h/mL"},
      {"measurement": "mean trough total AZD3409 acid concentrations", "setting": "[1]; twice daily dosing levels", "value": "36.3 to 81.9", "unit": "ng/mL"},
      {"measurement": "plasma concentration at which 90% of the maximal biological effect is reached", "setting": "FTase; Emax model for lamin B", "value": "approximately 100 ng ml^−1"},
      {"measurement": "EC50", "setting": "FTase; Emax model, lamin B substrate, PBMC lysate, day 1, 2 h after intake, read-out: EC50 (plasma concentration at 50% of maximal FTase inhibition) (converted)", "value": 18.8, "unit": "nM"},
      {"measurement": "Emax", "setting": "FTase; human, Emax model, lamin B substrate, PBMC lysate, day 1, 2 h after intake, vs AZD3409 acid plasma concentration, read-out: maximal effect (Emax), maximal FTase inhibition", "value": "49 ± 11", "unit": "%"},
      {"measurement": "share of the maximally achievable FTase inhibition at mean trough concentrations", "setting": "FTase; twice daily dosing levels, Emax model lamin B", "value": "at least 75%"}
    ]},
    {"smiles": "CSCC[C@H](NC(=O)c1cc(NC[C@@H]2C[C@H](SC(=O)c3cccnc3)CN2)ccc1CCc1ccc(F)cc1)C(=O)OC(C)C", "note": "[AZD3409]", "values": [
      {"measurement": "appearance of parent drug in blood", "setting": "[1]; after oral administration, rapidly metabolised in the gut and plasma to AZD3409 ester", "value": "does not appear in the blood"},
      {"measurement": "degree of FTase inhibition in PBMCs after intake vs prior to intake", "setting": "FTase; each day, lamin B and K-Ras substrates, mixed effects model", "value": "significantly higher than prior to intake"}
    ]}
  ]
}
